Test results published in PMC4455150, “A RP-UFLC Assay for Protein Tyrosine Phosphatases: Focus on Protein Tyrosine Phosphatase Non-Receptor Type 2 (PTPN2)” (Scientific Reports, 2015).

Legend:
Assay type in all cases: biochemical
PTPN2 [1] = molecular target: T1, PTPN2 (Homo sapiens, UniProt P17706); test: dephosphorylation of chromogenic substrate by purified enzyme
T1 construct: full length human PTPN2 (TC45 variant), 6xHis-tagged
T1 sequence (P17706 1-381 limits assumed): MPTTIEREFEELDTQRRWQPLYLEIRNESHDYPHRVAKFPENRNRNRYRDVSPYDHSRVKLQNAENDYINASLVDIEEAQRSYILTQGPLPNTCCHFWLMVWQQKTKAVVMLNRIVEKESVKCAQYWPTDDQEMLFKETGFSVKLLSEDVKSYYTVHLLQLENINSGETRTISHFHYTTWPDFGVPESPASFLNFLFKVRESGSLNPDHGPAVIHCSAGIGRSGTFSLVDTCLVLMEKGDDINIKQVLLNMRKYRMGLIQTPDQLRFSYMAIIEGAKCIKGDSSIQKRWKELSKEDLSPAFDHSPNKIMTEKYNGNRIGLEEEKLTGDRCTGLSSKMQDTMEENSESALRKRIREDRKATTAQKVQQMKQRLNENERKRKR

PTPN2 [2] = molecular target: T1, PTPN2; test: RP-UFLC phosphatase assay with FAM-pStat1 peptide; time- and concentration-dependent inactivation kinetics (ki […] ^-1 min^-1)
PTPN2 [3] = molecular target: T1, PTPN2; test: RP-UFLC phosphatase assay with FAM-pStat1 peptide

Compound: O=[N+]([O-])c1ccc(OP(=O)(O)O)cc1 [pNPP, p-nitrophenyl phosphate]
- dephosphorylation of chromogenic substrate by purified enzyme (PTPN2 [1]): Purified PTPN2 was functional as demonstrated by the dephosphorylation of the non-proteinaceous and non-specific chromogenic substrate p-nitrophenyl phosphate (pNPP)

Compound: C=CS(=O)(=O)Oc1ccccc1 [PVSN, phenyl vinyl sulfonate]
- IC50 (PTPN2 [2]): 180 µM

Compound: [O]=[V]([OH])([OH])[OH] [orthovanadate]
- IC50 (PTPN2 [3]): ~1 µM
